Measurements: patent publication US10981932B2, “Macrocyclic indole derivatives” (Bayer Aktiengesellschaft, priority 2016, dated 2021)
Several values for one entry are separate records, joined by “and”; a condition that tells them apart may be missing. Identical values can stand only once. Like-named read-outs stand apart in the source and are kept apart here.

What was measured:
MCL-1 = MCL-1 (Homo sapiens, UniProt Q07820); experiment: Protein-protein interaction assay MCL-1/Noxa BH3 peptide (MCL-1 assay), TR-FRET; assay type: binding; conditions: MBP-MCL-1 / Noxa BH3-derived peptide, median
Summary of the method: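 TR-FRET, 665/622 nm emission ratio (excitation 330–350 nm), measured MCL-1/Noxa complex formation. 1 nM MBP-MCL-1, 50 mM Tris/HCl pH 7, 0.1% BGG, 2 mM DTT. Incubation 1 h at 22 °C, then overnight at 4 °C. IC50 by 4-parameter regression, normalized to DMSO (0%) and no-MCL-1 (100%) controls.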

SUDHL5 [1] = experiment: Induction of caspase-3/7 activity (Caspase-Glo 3/7), SUDHL5; assay type: cell-based; conditions: caspase-3/7 induction, SUDHL5 cells, 3 h treatment, median
Summary of the method: (§1)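 DLBCL cells treated with compounds for 3 h at 37 °C, then caspase-3/7 activity read by Caspase-Glo 3/7 luminescence. Medium-only background subtracted; EC50 fitted with C0 fixed at 1 and top set to the reference compound's maximal induction.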

SUDHL10 [2] = experiment: Induction of caspase-3/7 activity (Caspase-Glo 3/7), SUDHL10; assay type: cell-based; conditions: caspase-3/7 induction, SUDHL10 cells, 3 h treatment, median
Summary of the method: as §1

OPM2 = experiment: Anti-proliferative effect (CellTiter-Glo, 72 h), OPM2; assay type: cell-based; conditions: OPM2 cells, median, read-out: IC50 antiproliferation assay OPM2 [M] (median)
Method: Assessment of the Anti-Proliferative Effect of Compounds in Different Cell Lines
The impact of compounds on the proliferation of different cell lines was assessed using the CellTiter-Glo® Luminescent Cell Viability reagent from Promega (G7573). Of note, SUDHL10 and SUDHL5 (DLBCL), NCI-H929 (Multiple Myeloma), A2780 (ovarian carcinoma) as well as MV-4-11(AML) cells are sensitive to MCL-1 inhibition.
In parallel, cells were plated in a reference (day 0) plate for time zero determination.
Rim wells were excluded. The cells were incubated for 72 h hours in a humidified incubator at 37° C. The day 0 plate was measured by adding 30 μl/well of CTG solution (CellTiter-Glo® Luminescent Cell Viability reagent, Promega G7573) to time zero wells in the reference plate followed by a 10 minutes incubation and luminescence reading at 0.1 ms, using the PHERAstar FS microplate reader (BMG Labtech).
After 72 h incubation, the treated plates were measured in the same way as the day 0 plate mentioned above.

A2780 = experiment: Anti-proliferative effect (CellTiter-Glo, 72 h), A2780; assay type: cell-based; conditions: A2780 cells, median, read-out: IC50 antiproliferation assay A2780 [M] (median)
Summary of the method: (§2)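 A time zero plate, read with CellTiter-Glo shortly after seeding, served as baseline; compound-treated plates were incubated 72 h at 37 °C and then read identically by luminescence.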

SUDHL10 [3] = experiment: Anti-proliferative effect (CellTiter-Glo, 72 h), SUDHL10; assay type: cell-based; conditions: SUDHL10 cells, antiproliferation, 72 h incubation, median, read-out: Antiproli SUDHL10 [M] (median)
Summary of the method: as §2

SUDHL5 [4] = experiment: Induction of cytotoxicity (CellTiter-Glo, 5 h), SUDHL5
Method: Therefore, cytotoxicity assays were run in parallel in SUDHL5 and SUDHL10 cells.
The different cell lines were plated in culture medium (RPMI 1640 [GIBCO #22400-089]supplemented with 10% Fetal Bovine Serum) at a density of 3.300 cells in 30 μl/well in a sterile, solid black, flat bottom, polystyrene, TC-treated 384-well microplate (Corning #3571) using Multidrop Combi Reagent Dispenser. As a control, medium without cells was also added to the plate. Cells were incubated in a humidified incubator at 37° C. overnight. On the next day, the cells were treated with compounds (stock solution, 10 mM in DMSO) using the HP D300 Digital Dispenser in a concentration range of 3.3×10e-5 M (33 μM) to 5×10e-9 M (5 nM) in a single-dot curve with at least 16 dilutions and a DMSO concentration of 0.33%. Rim wells were excluded. The cells were incubated for 5 h hours in a humidified incubator at 37° C. After this incubation, 30 μl of CellTiter-Glo@ Luminescent Cell Viability reagent (Promega, G7573) was added to each well using the Multidrop Combi Reagent Dispenser, followed by 15 min incubation on a shaker at room temperature. Finally, luminescence was read at 0.1 ms, with a gain of 3000 using the PHERAstar FS microplate reader (BMG Labtech).
The Bella DRC Master Sheet was used to calculate IC50s, with fixed CI=0 and C0=1.

SUDHL10 [5] = experiment: Induction of cytotoxicity (CellTiter-Glo, 5 h), SUDHL10
SUDHL5 [6] = experiment: Anti-proliferative effect (CellTiter-Glo, 72 h), SUDHL5; assay type: cell-based; conditions: Homo sapiens, SU-DHL-5, 72 h, SUDHL5 cells, antiproliferation, 72 h incubation, median, read-out: Antiproli SUDHL5 [M] (median)
Summary of the method: as §2

[7] = Homo sapiens, SU-DHL-5, 5 h, read-out: Cytotox SUDHL5 [M] (median), SUDHL5 cells, cytotoxicity induction, CellTiter-Glo, 5 h incubation, median
[8] = Homo sapiens, SU-DHL10, 5 h, read-out: Cytotox SUDHL10 [M] (median), SUDHL10 cells, cytotoxicity induction, CellTiter-Glo, 5 h incubation, median
[9] = read-out: Cytotox SUDHL5 [M] (median), SUDHL5 cells, cytotoxicity induction, CellTiter-Glo, 5 h incubation, median
[10] = read-out: Cytotox SUDHL10 [M] (median), SUDHL10 cells, cytotoxicity induction, CellTiter-Glo, 5 h incubation, median

Chain of MCL-1 (Q07820 whole entry): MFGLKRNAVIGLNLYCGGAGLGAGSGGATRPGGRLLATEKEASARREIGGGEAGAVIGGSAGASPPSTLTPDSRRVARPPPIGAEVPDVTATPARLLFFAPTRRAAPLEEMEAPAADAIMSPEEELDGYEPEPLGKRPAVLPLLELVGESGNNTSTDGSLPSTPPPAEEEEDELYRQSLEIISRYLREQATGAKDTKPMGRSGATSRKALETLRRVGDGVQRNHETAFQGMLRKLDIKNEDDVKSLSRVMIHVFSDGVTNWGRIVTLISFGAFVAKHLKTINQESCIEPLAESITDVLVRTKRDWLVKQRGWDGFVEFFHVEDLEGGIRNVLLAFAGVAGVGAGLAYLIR

Compound | IC50 (MCL-1) [µM] | EC50 (SUDHL5 [1]; Homo sapiens, SU-DHL-5, 3 h) [µM] | EC50 (SUDHL10 [2]; Homo sapiens, SU-DHL10, 3 h) [µM] | IC50 (A2780; Homo sapiens, A2780, 72 h) [M] | IC50 (SUDHL10 [3]; Homo sapiens, SU-DHL10, 72 h) [M] | EC50 (SUDHL5 [1]) [µM] | EC50 (SUDHL10 [2]) [µM] | IC50 (SUDHL10 [3]) | IC50 (SUDHL5 [6]) [M] | IC50 (A2780) [M] | IC50 (OPM2; Homo sapiens, OPM-2, 72 h) [M] | IC50 (SUDHL5 [4]; [7]) [M] | IC50 (SUDHL10 [5]; [8]) [M] | IC50 (OPM2) [M] | IC50 (SUDHL5 [4]; [9]) [M] | IC50 (SUDHL10 [5]; [10]) [M]
CC(C)OCc1nn(C)c2c1-c1cccc3c(CCCOc4cccc5ccccc45)c(C(=O)O)n(c13)C/C=C\COC2 (racemic) [Example 1-68, (rac)-(11Z)-1-methyl-7-[3-(naphthalen-1-yloxy)propyl]-3-[(propan-2-yloxy)methyl]-1,10,13,15-tetrahydropyrazolo[4′,3′:9,10][1,6]oxazacycloundecino[8,7,6-hi]indole-8-carboxylic Acid] | 0.0269 | > 33 | > 33 | 2.87e-05 |  |  |  |  |  |  | > 3.3e-05 |  |  |  |  | 
CC(C)OCc1nn(C)c2c1-c1cccc3c(CCCOc4cccc5ccccc45)c(C(=O)O)n(c13)CCCN(C)C2 (racemic) [Example 1-70, (rac)-7,9-dimethyl-1-[3-(naphthalen-1-yloxy)propyl]-11-[(propan-2-yloxy)methyl]-4,5,6,7,8,9-hexahydropyrazolo[3′,4′:78][1,5]diazecino[9,10,1-hi]indole-2-carboxylic Acid] | 0.02 | > 33 | > 33 | 1.82e-05 | 1.31e-05 |  |  |  |  |  | 1.22e-05 | > 3.3e-05 | 2.78e-05 |  |  | 
Cc1nn(C)c2c1-c1cccc3c(CCCOc4cccc5ccccc45)c(C(=O)O)n(c13)CCN(c1ccccc1)C2 (racemic) [Example 1-101, (rac)-8,10-Dimethyl-1-[3-(1-naphthyloxy)propyl]-6-phenyl-5,6,7,8-tetrahydro-4H-pyrazolo[3′,4′:6,7][1,4]diazonino[8,9,1-hi]indole-2-carboxylic Acid] | 0.319 | > 33 | > 33 | 1.97e-05 | 1.05e-05 |  |  |  |  |  | > 3.3e-05 | > 3.3e-05 | > 3.3e-05 |  |  | 
COc1cc2cc(c1)-c1cccc3c(CCCOc4cccc5c4CCCC5)c(C(=O)O)n(c13)CCOCCO2 (racemic) [Example 1-118, (rac)-12-Methoxy-1-[3-(5,6,7,8-tetrahydronaphthalen-1-yloxy)propyl]-4,57,8-tetrahydro-10,14-(metheno)[1,4,7]dioxazacyclotetradecino[9,8,7-hi]indole-2-carboxylic Acid] | 2.18 | > 33 | > 33 | 3.25e-05 | 2.2e-05 |  |  |  |  |  | > 3.3e-05 | > 3.3e-05 | > 3.3e-05 |  |  | 
COc1cc2cc(c1)-c1cccc3c(CCCOc4cccc5ccccc45)c(C(=O)O)n(c13)CCOCCO2 (racemic) [Example 1-119, (rac)-12-Methoxy-1-[3-(1-naphthyloxy)propyl]-4,5,7,8-tetrahydro-10,14-(metheno)[1,4,7]dioxazacyclotetradecino[9,8,7-hi]indole-2-carboxylic Acid] | 2.31 | > 33 | > 33 | > 3.3e-05 | > 3.3e-05 |  |  |  |  |  | > 3.3e-05 | > 3.3e-05 | > 3.3e-05 |  |  | 
COc1cc2cc(c1)-c1cccc3c(CCCOc4cccc5ccccc45)c(C(=O)O)n(c13)CCCCCO2 (racemic) [Example 1-122, (rac)-12-Methoxy-1-[3-(naphthalen-1-yloxy)propyl]-5,6,7,8-tetrahydro-4H-10,14-(metheno)[1,7]oxazacyclotetradecino[9,8,7-hi]indole-2-carboxylic Acid] | 6.88 | > 33 | > 33 | 2.8e-05 | > 3.3e-05 |  |  |  |  |  | 2.77e-05 | > 3.3e-05 | > 3.3e-05 |  |  | 
COC1(c2ccc(OCc3nn(C)c4c3-c3cccc5c(CCCOc6cccc7ccccc67)c(C(=O)O)n(c35)CCCCOC4)cc2)CCOCC1 (single isomer, unassigned) [Example 1-66, 3-{[4-(4-methoxytetrahydro-2H-pyran-4-yl)phenoxy]methyl}-1-methyl-7-[3-(naphthalen-1-yloxy)propyl]-1,10,11,12,13,15-hexahydropyrazolo[4′,3′:9,10][1,6]oxazacycloundecino[8,7,6-hi]indole-8-carboxylic Acid] | 0.00943 |  |  | 1.22e-05 |  | 6.15 | 8.47 | 9.23e-06 M and 1.76e-05 M |  |  | 1.18e-05 |  |  |  |  | 

More lines, main results first:

IC50 (MCL-1) [µM] | EC50 (SUDHL5 [1]; Homo sapiens, SU-DHL-5, 3 h) [µM] | EC50 (SUDHL10 [2]; Homo sapiens, SU-DHL10, 3 h) [µM] | IC50 (A2780; Homo sapiens, A2780, 72 h) [M] | IC50 (SUDHL10 [3]; Homo sapiens, SU-DHL10, 72 h) [M] | EC50 (SUDHL5 [1]) [µM] | EC50 (SUDHL10 [2]) [µM] | IC50 (SUDHL10 [3]) | IC50 (SUDHL5 [6]) [M] | IC50 (A2780) [M] | Compound | IC50 (OPM2; Homo sapiens, OPM-2, 72 h) [M] | IC50 (SUDHL5 [4]; [7]) [M] | IC50 (SUDHL10 [5]; [8]) [M] | IC50 (OPM2) [M] | IC50 (SUDHL5 [4]; [9]) [M] | IC50 (SUDHL10 [5]; [10]) [M]
0.00466 | > 33 | > 33 | > 3.3e-05 | > 3.3e-05 |  |  |  |  |  | Cn1nc(COc2ccc(N3CCN(CC(=O)O)CC3)cc2)c2c1COCCCCn1c(C(=O)O)c(CCCOc3cccc4ccccc34)c3cccc-2c31 (racemic) [Example 1-120, (rac)-3-({4-[4-(Carboxymethy)piperazin-1-yl]phenoxy}methyl)-1-methyl-7-[3-(naphthalen-1-yloxy)propyl]-1,10,11,12,13,15-hexahydropyrazolo[4′,3′:9,10][1,6]oxazacycloundecino[8,7,6-hi]indole-8-carboxylic Acid] | > 3.3e-05 | > 3.3e-05 | > 3.3e-05 |  |  | 
0.131 |  |  | 1.7e-05 |  | 1.61 | 3.89 |  | 2.86e-05 |  | CC(=O)N1CCN(c2ccc(OCc3nn(C)c4c3-c3cccc5c(CCCOc6cccc7ccccc67)c(C(=O)O)n(c35)CCCCOC4)cc2)CC1 (single isomer, unassigned; enantiomer 1) [Example 1-25, 3-{[4-(4-acetylpiperazin-1-yl)phenoxy]methyl}-1-methyl-7-[3-(naphthalen-1-yloxy)propyl]-1,10,11,12,13,15-hexahydropyrazolo[4′,3′:9,10][1,6]oxazacycloundecino[8,7,6-hi]indole-8-carboxylic Acid (Enantiomer 1)] |  |  |  | 1.08e-05 | 2.68e-06 | 4.02e-06
0.0709 |  |  | 3.12e-05 |  | > 33 | > 33 |  |  |  | COCC(=O)N1CCN(c2ccc(OCc3nn(C)c4c3-c3cccc5c(CCCOc6cccc7ccccc67)c(C(=O)O)n(c35)CCCCOC4)cc2)CC1 (single isomer, unassigned; enantiomer 1) [Example 1-28, 3-({4-[4-(methoxyacetyl)piperazin-1-yl]phenoxy}methyl)-1-methyl-7-[3-(naphthalen-1-yloxy)propyl]-1,10,11,12,13,15-hexahydropyrazolo[4′,3′:9,10][1,6]oxazacycloundecino[8,7,6-hi]indole-8-carboxylic Acid (Enantiomer 1)] |  |  |  | 1.98e-05 | > 3.3e-05 | > 3.3e-05
0.00163 |  |  |  |  | > 33 | > 33 |  |  | 2.48e-05 | CC(=O)N1CCN(c2ccc(OCc3nn(C)c4c3-c3cccc5c(CCCOc6cccc7ccccc67)c(C(=O)O)n(c35)CCCCOC4)cc2)CC1 (single isomer, unassigned; enantiomer 2) [Example 1-26, 3-{[4-(4-acetylpiperazin-1-yl)phenoxy]methyl}-1-methyl-7-[3-(naphthalen-1-yloxy)propyl]-1,10,11,12,13,15-hexahydropyrazolo[4′,3′:9,10][1,6]oxazacycloundecino[8,7,6-hi]indole-8-carboxylic Acid (Enantiomer 2)] |  |  |  | 2e-06 | > 3.3e-05 | > 3.3e-05
